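Cultured in 96-well plates, cells were exposed to test compound for 48 hours across five concentrations. GI50 is the concentration that inhibits growth by half.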 Active and inactive are the calls of the source. Cut-off read from the data, not from the text of the source: active = GI50 up to about 1.1 µM and inactive = higher.
Experiments:
Experiment in all cases: NCI-60 cell line screen, 48 h
NCI-H460 = tested on: NCI-H460
HCT-116 = tested on: HCT-116
NCI/ADR-RES = tested on: NCI/ADR-RES
SNB-75 = tested on: SNB-75
OVCAR-3 = tested on: OVCAR-3
RPMI-8226 = tested on: RPMI-8226
CCRF-CEM = tested on: CCRF-CEM
HL-60 = tested on: HL-60
HOP-92 = tested on: HOP-92
MDA-MB-231 = tested on: MDA-MB-231
SF-268 = tested on: SF-268
CAKI-1 = tested on: CAKI-1
T47D = tested on: T47D
U-251 = tested on: U-251
SK-OV-3 = tested on: SK-OV-3
Hs-578T = tested on: Hs-578T
TK-10 = tested on: TK-10
LOX IMVI = tested on: LOX IMVI

Compound | GI50 (NCI-H460) | GI50 (HCT-116) | GI50 (NCI/ADR-RES) | GI50 (SNB-75) | GI50 (OVCAR-3) | GI50 (RPMI-8226) | GI50 (CCRF-CEM) | GI50 (HL-60) | GI50 (HOP-92) | GI50 (MDA-MB-231) | GI50 (SF-268) | GI50 (CAKI-1) | GI50 (T47D) | GI50 (U-251) | GI50 (SK-OV-3) | GI50 (Hs-578T) | GI50 (TK-10) | GI50 (LOX IMVI)
O=C1c2cccnc2S(=O)(=O)N1c1ccc(Oc2ccccc2)cc1 | > 100 µM (inactive) | > 100 µM (inactive) | > 100 µM (inactive) | > 100 µM (inactive) | > 100 µM (inactive) | > 100 µM (inactive) | 90.4 µM (inactive) | > 100 µM (inactive) | > 100 µM (inactive) | > 100 µM (inactive) | > 100 µM (inactive) | 51.8 µM (inactive) | > 100 µM (inactive) | > 100 µM (inactive) | 41.4 µM (inactive) |  |  | 
S=C(N/N=C(/c1ccccc1)c1ccccn1)N1CCCCC1 | < 0.0211 µM (active) | 0.01 µM (active) |  | 1.25 µM (inactive) | 0.01 µM (active) | < 0.0202 µM (active) | < 0.0134 µM (active) | 0.01 µM (active) | 0.546 µM (active) | 0.0273 µM (active) |  | 0.143 µM (active) | 0.0927 µM (active) | < 0.0244 µM (active) | < 0.0387 µM (active) | 0.237 µM (active) | 0.114 µM (active) | 
c1ccc2c(c1)[nH]c1nc3cc(-c4ccc5nc6c(nc5c4)[nH]c4ccccc46)ccc3nc12 | > 33.5 µM (inactive) | > 69.7 µM (inactive) |  | > 100 µM (inactive) |  | 38 µM (inactive) | 12.9 µM (inactive) | 20.9 µM (inactive) |  | > 34.5 µM (inactive) | > 100 µM (inactive) | > 100 µM (inactive) | > 100 µM (inactive) | 69.3 µM (inactive) | > 100 µM (inactive) | > 100 µM (inactive) | > 100 µM (inactive) | > 39.9 µM (inactive)
O=C1/C(=C/c2ccccc2)N=C(c2ccccc2)N1C1Nc2cc3c(cc2S1)NC(N1C(=O)/C(=C/c2ccccc2)N=C1c1ccccc1)S3 (stereo not drawn) | 17.9 µM (inactive) | 32.5 µM (inactive) | 44.6 µM (inactive) |  | 37.1 µM (inactive) | 5.4 µM (inactive) | 31.7 µM (inactive) | 3.63 µM (inactive) | 2.31 µM (inactive) | 1.82 µM (inactive) | 5.61 µM (inactive) | > 100 µM (inactive) | 30.4 µM (inactive) | 4.72 µM (inactive) | > 100 µM (inactive) |  | 30.5 µM (inactive) | 3.74 µM (inactive)
CC1CC/C(=C\c2ccc(Cl)cc2)c2nc(N)c(C#N)c(-c3ccc(Cl)cc3)c21 (stereo not drawn) |  | 84.9 µM (inactive) | 55.1 µM (inactive) | 67 µM (inactive) | 47.1 µM (inactive) | 19.7 µM (inactive) | 23.5 µM (inactive) | 3.07 µM (inactive) |  | > 100 µM (inactive) |  | 21.8 µM (inactive) | 55.3 µM (inactive) | 17.7 µM (inactive) | > 100 µM (inactive) |  | 45.4 µM (inactive) | > 100 µM (inactive)
CC1CC(=O)NC2CC1C2(C)C (stereo not drawn) | > 100 µM (inactive) |  |  | > 100 µM (inactive) | > 100 µM (inactive) | > 100 µM (inactive) | > 100 µM (inactive) | > 100 µM (inactive) | > 100 µM (inactive) | > 100 µM (inactive) | > 100 µM (inactive) |  | > 100 µM (inactive) | > 100 µM (inactive) |  | > 100 µM (inactive) | > 100 µM (inactive) | > 100 µM (inactive)
CON(C)C(=O)C(C)NC(=O)OCc1ccccc1 (stereo not drawn) | > 100 µM (inactive) | > 100 µM (inactive) | > 100 µM (inactive) | > 100 µM (inactive) | > 100 µM (inactive) | > 100 µM (inactive) | > 100 µM (inactive) | > 100 µM (inactive) | > 100 µM (inactive) |  | > 100 µM (inactive) |  |  | > 100 µM (inactive) | > 100 µM (inactive) | > 100 µM (inactive) | > 100 µM (inactive) | 

Reference: ChEMBL document CHEMBL1201862, “PubChem BioAssay data set” (2004)
